ChEMBL document CHEMBL1158215, “Three new cytotoxic sesterterpenes from the marine sponge Hyrtios cf. erectus” (J Nat Prod, 1996)
Values after ≈ are worked out from the molar mass of the structure shown.

The molecules below were run on P388 (assay: Cytotoxicity against mouse P388 cells).
Format: functional, cell-based
In the case of `CC(=O)OC[C@]1(C)CCC[C@]2(C)[C@H]3CC[C@@]4(C)[C@@H](CC=C5C(=O)O[C@@H](O)[C@@H]54)[C@]3(C)CC[C@@H]12`, the IC50 is reported as 0.9 µg/mL (≈ 2.02 µM). `CC(=O)O[C@@H]1C[C@@H]2[C@@]3(C)CCCC(C)(C)[C@@H]3CC[C@@]2(C)[C@@H]2C[C@H](O)C3=CC(=O)O[C@@H]3[C@@]12C` showed an IC50 of 2.1 µg/mL (≈ 4.72 µM). `CC1(C)CCC[C@]2(C)[C@H]3C[C@@H](O)[C@]4(C)[C@H]5OC(=O)C=C5[C@@H](O)C[C@H]4[C@]3(C)CC[C@@H]12` gave an IC50 of 0.4 µg/mL (≈ 0.994 µM).
